Measured values as given in publication PMC8878452, “A Tale of Toxin Promiscuity: The Versatile Pharmacological Effects of Hcr 1b-2 Sea Anemone Peptide on Voltage-Gated Ion Channels” (Marine Drugs, 2022).
“Also recorded” adds a separate entry of the source. Bridges are numbered along the chain shown (N, C = ends). Where no end group is shown, it is not given here.

How the values were obtained:
[1] = system: rKv1.3; test: TEVC, Kv1.3 in Xenopus oocytes; format: cell-based, rat; conditions: 1 µM, ND96 pH 7.4, 18–22 °C, n ≥ 3
Source text: (§1) For the expression of Kv channels (rKv1.1, rKv1.2, rKv1.3, rKv1.4, rK1.5, rKv1.6, hKv2.1, hKv3.1, rKv4.2, hKv7.1, hKv7.2/7.3, hKv7.4, KQT1 (from the roundworm Caenorhabditis elegans), hKv10.1 (hEAG1), hKv11.1 (hERG1), and Shaker, from Drosophila melanogaster), Nav channels (rNav1.1, rNav1.2, rNav1.3, rNav1.4, hNav1.5, mNav1.6, hNav1.7, hNav1.8, and BgNav (from the cockroach Blattella germanica), as well as the hβ1 and rβ1 subunits, and Cav channels (rCav3.1, hCav3.2, and rCav3.3) in Xenopus oocytes, the linearized plasmids were transcribed using the T7 or SP6 mMESSAGEmMACHINE transcription kit (Ambion, Austin, TX, USA). Mature female animals were purchased from Nasco (Fort Atkinson, WI, USA) and were housed in the Aquatic Facility (KU Leuven) in compliance with the regulations of the European Union (EU) concerning the welfare of laboratory animals as declared in Directive 2010/63/EU. The use of X. laevis oocytes was approved by the Animal Ethics Committee of the KU Leuven, with the license number P186/2019. […]
(§2) Whole-cell currents of oocytes were recorded 1 to 3 days after RNA injection. […] The current–voltage relationships were determined by 50 ms step depolarizations between −90 and +65 mV using 5 or 10 mV increments. All electrophysiological data were analyzed following the procedures described by Peigneur et al., 2012 [20].
(§3) All values were expressed as means ± SEM. […]

[2] = system: rKv1.1; test: TEVC, Kv1.1 in Xenopus oocytes; format: cell-based, rat
Source text: (§4) For the expression of Kv channels (rKv1.1, rKv1.2, rKv1.3, rKv1.4, rK1.5, rKv1.6, hKv2.1, hKv3.1, rKv4.2, hKv7.1, hKv7.2/7.3, hKv7.4, KQT1 (from the roundworm Caenorhabditis elegans), hKv10.1 (hEAG1), hKv11.1 (hERG1), and Shaker, from Drosophila melanogaster), Nav channels (rNav1.1, rNav1.2, rNav1.3, rNav1.4, hNav1.5, mNav1.6, hNav1.7, hNav1.8, and BgNav (from the cockroach Blattella germanica), as well as the hβ1 and rβ1 subunits, and Cav channels (rCav3.1, hCav3.2, and rCav3.3) in Xenopus oocytes, the linearized plasmids were transcribed using the T7 or SP6 mMESSAGEmMACHINE transcription kit (Ambion, Austin, TX, USA). Mature female animals were purchased from Nasco (Fort Atkinson, WI, USA) and were housed in the Aquatic Facility (KU Leuven) in compliance with the regulations of the European Union (EU) concerning the welfare of laboratory animals as declared in Directive 2010/63/EU. The use of X. laevis oocytes was approved by the Animal Ethics Committee of the KU Leuven, with the license number P186/2019.
(§5) Stage V–VI oocytes were collected from anesthetized female X. laevis frog as previously described, with the frogs anesthetized by placement in a 0.1% tricaine solution (amino benzoic acid ethyl ester; Merck, Kenilworth, NJ, USA). Oocyte microinjection was performed using a microinjector (Drummond Scientifc®, Broomall, PA, USA), with a programmed cRNA injection volume of 4–50 nL, depending on channel subtype. The oocytes were incubated in ND96 solution (96 mM NaCl; 2 mM KCl; 1.8 mM CaCl2; 2 mM MgCl2, and 5 mM HEPES, pH 7.4), supplemented with 50 mg/L of gentamicin sulfate.
(§6) Electrophysiological measurements were performed at room temperature (18–22 °C) using the two-electrode voltage-clamp (TEVC) technique. Data were obtained using a GeneClamp 500 amplifier (Axon Instruments®, Burlingame, CA, USA) and Clampex9 software (Axon Instruments®, USA) was responsible for data acquisition and storage. Glass micropipettes were produced using glass capillaries (borosilicate WPI 1B120-6) and drawn in a WPI (World Precision Instruments®, Sarasota, FL, USA) manual stretcher. The bath and perfusion solutions were either the previously described ND96 (Nav and Kv channels) or calcium-free ND96 supplemented with 10 mM BaCl2 (Cav channels).
(§7) Whole-cell currents of oocytes were recorded 1 to 3 days after RNA injection. The current and voltage electrodes were filled with 3 M KCl, and their resistance was adjusted from 1.0 to 2.5 MΩ. […] The current–voltage relationships were determined by 50 ms step depolarizations between −90 and +65 mV using 5 or 10 mV increments. All electrophysiological data were analyzed following the procedures described by Peigneur et al., 2012 [20].
as §3

[3] = system: hKv7.2/7.3; test: TEVC, Kv7.2/7.3 in Xenopus oocytes; format: cell-based, human
Source text: as §4, §5, §6, §7, §3

[4] = system: hNav1.5; test: TEVC, Nav1.5 in Xenopus oocytes; format: cell-based, human
Source text: as §4, §5, §6
(§8) Whole-cell currents of oocytes were recorded 1 to 3 days after RNA injection. The current and voltage electrodes were filled with 3 M KCl, and their resistance was adjusted from 1.0 to 2.5 MΩ. Currents were sampled at 20 kHz (Nav channels) and 10 kHz (Kv and Cav channels) and filtered using a four-pole Bessel low-pass Bessel filter at 1 kHz for sodium and […] for potassium and calcium, except for the hERG ion channel in which the currents were filtered at 1 kHz. Leak subtraction was performed using a P/4 protocol. Kv1.x currents were evoked by 500 ms depolarizations to 0 mV, followed by a 500 ms pulse to −50 mV from a holding potential of −90 mV. Kv2.1, Kv3.1, Kv4.2, Kv7.x, and KQT1 currents were elicited by 700 ms pulses to +20 mV from a holding potential of −90 mV. Current traces of the hERG1 channel were elicited by applying a +40 mV prepulse for 2 s, followed by a step of −120 mV for 2 s. Current traces of hEAG1 were elicited by a 2 s depolarization to 0 mV from a holding potential of −90 mV. Sodium current traces were evoked by a 100 ms depolarization to 0 mV. For Cav channels, current traces were elicited by 700 ms depolarizations to −20 mV from a holding potential of −90 mV. The current–voltage relationships were determined by 50 ms step depolarizations between −90 and +65 mV using 5 or 10 mV increments. All electrophysiological data were analyzed following the procedures described by Peigneur et al., 2012 [20].
(§9) All values were expressed as means ± SEM. Differences in ionic currents between the control and toxin conditions were compared by a one-way ANOVA, followed by Dunnett’s multiple comparisons test. Differences were considered statistically significant when […].

[5] = system: hNav1.8; test: TEVC, Nav1.8 in Xenopus oocytes; format: cell-based, human
Source text: as §4, §5, §6, §8, §9

[6] = system: rKv1.6; test: TEVC, Kv1.6 in Xenopus oocytes; format: cell-based, rat; conditions: 1 µM, n ≥ 3
Source text: as §1, §2, §3

[7] = system: tested animals; conditions: cited from earlier work
Procedure: Recently, the Hcr 1b-2 sequence was determined, together with two other peptides, named Hcr1b-3 and Hcr1b-4, which share 97.6% and 78.0% of sequence identity, respectively (Figure 1).

[8] = system: BgNav; test: TEVC, BgNav in Xenopus oocytes; format: cell-based, Blattella germanica
Source text: as §4, §5, §6
as §8, with “Current traces of hEAG1 were elicited by a 2 s depolarization to 0 mV from a holding potential of −90 mV. Sodium current traces were evoked by a 100 ms depolarization to 0 mV. For Cav channels, current traces were elicited by 700 ms depolarizations to −20 mV from a holding potential of −90 mV.” left out
as §3

[9] = 1 µM, TEVC, ND96 pH 7.4, 18–22 °C, n ≥ 3
[10] = 1 µM, 100 ms depolarization to 0 mV, mean ± SEM, n ≥ 3

GTPCKCHGYIGVYWFMLAGCPNGYGYNLSCPYFLGICCVKK (disulfide 4-37, 6-30, 20-38 (inferred)) [Hcr 1b-2]
effect on potassium current, Kv1.3 [1]: inhibition
gating-modifier effect (voltage-current relationship), Kv1.1 ([2]; 1 µM): non-significant gating-modifier effect
Shift in Vhalf activation, Kv1.1 ([2]; 1 µM vs control (ND96)): −4.8 mV
effect on potassium current, Kv1.1 [2, 9]: activation
Vhalf activation, Kv1.1 ([2]; 1 µM, control (ND96) −13.8 ± 0.3, mean ± SEM): −18.6 ± 0.3 mV
gating-modifier effect (voltage-current relationship), Kv7.2/7.3 ([3]; 1 µM): non-significant gating-modifier effect
Shift in Vhalf activation, Kv7.2/7.3 ([3]; 1 µM vs control (ND96)): 1.3 mV
effect on potassium current, Kv7.2/7.3 [3, 9]: inhibition; also recorded: inhibits
Vhalf activation, Kv7.2/7.3 ([3]; 1 µM, control (ND96) 14.6 ± 0.5, mean ± SEM): 15.9 ± 0.7 mV
effect on activation or inactivation, Nav1.5 ([4]; 1 µM): no significant effect
Shift in Vhalf activation, Nav1.5 ([4]; 1 µM vs control (ND96)): 3.8 mV
Shift in Vhalf inactivation, Nav1.5 ([4]; 1 µM vs control (ND96)): −3.2 mV
reduction of peak amplitude (INa), Nav1.5 [4, 10]: 41.6 ± 5.9%
Vhalf activation, Nav1.5 ([4]; 1 µM, control (ND96) −38.5 ± 0.1, mean ± SEM, n ≥ 3): −34.7 ± 0.1 mV
Vhalf inactivation, Nav1.5 ([4]; 1 µM, control (ND96) −66.0 ± 0.2, mean ± SEM, n ≥ 3): −69.2 ± 0.2 mV
effect on activation or inactivation, Nav1.8 ([5]; 1 µM): no significant effect
Shift in Vhalf activation, Nav1.8 ([5]; 1 µM vs control (ND96)): −0.3 mV
Shift in Vhalf inactivation, Nav1.8 ([5]; 1 µM vs control (ND96)): −1.3 mV
reduction of peak amplitude (INa), Nav1.8 [5, 10]: 18.5 ± 1.9%
Vhalf activation, Nav1.8 ([5]; 1 µM, control (ND96) −2.3 ± 0.1, mean ± SEM, n ≥ 3): −2.6 ± 0.1 mV
Vhalf inactivation, Nav1.8 ([5]; 1 µM, control (ND96) −35.6 ± 0.4, mean ± SEM, n ≥ 3): −36.9 ± 0.5 mV
activity (inhibition of current), Kv1.6 ([6]; 500 ms depolarization to 0 mV from −90 mV, mean ± SEM): 31.5 ± 6.7%
effect on potassium current, Kv1.6 ([6]; TEVC, ND96 pH 7.4, 18–22 °C): inhibition
signs of neurotoxicity or changes in behavior [7]: None of these three peptides showed signs of neurotoxicity or changes in the behavior
Shift in Vhalf activation, BgNav ([8]; 1 µM vs control (ND96)): 1.9 mV
Shift in Vhalf inactivation, BgNav ([8]; 1 µM vs control (ND96)): −5.0 mV
reduction of peak amplitude (INa) / inhibition, BgNav [8, 10]: 17.7 ± 1.2%
Vhalf activation, BgNav ([8]; 1 µM, control (ND96) −29.0 ± 0.1, mean ± SEM, n ≥ 3): −27.1 ± 0.1 mV
Vhalf inactivation, BgNav ([8]; 1 µM, control (ND96) −47.9 ± 0.3, mean ± SEM, n ≥ 3): −52.9 ± 0.3 mV
